Results: article PMC12259270, “Sensory neuron–expressed FGF13 controls nociceptive signaling in diabetic neuropathy models” (The Journal of Clinical Investigation, 2025)
Several values for one entry are separate records, joined by “and”; a condition that tells them apart may be missing. Equal entries are not always repeated. Residues, ends and D or L forms follow the SMILES beside them. *: point of attachment. Cbz = O=C(OCc1ccccc1)*; NHPh = c1ccc(N*)cc1; OtBu = CC(C)(C)O*

Target: T1, FGF13R110A/Nav1.7 complex (Homo sapiens, UniProt Q15858+Q92913, R110A)
T1 construct: Full-length FGF13-1b (aa 1-192) was subcloned into appropriate plasmids; Nav1.7 residues 1780-1977; expressed in transfected cells; host or cells: HEK293 (inferred; the LCA paragraph only says 'cells')
Test: LCA, CLuc-FGF13R110A/CD4-Nav1.7-CTD-NLuc
Type: cell-based
Settings: for activity against the FGF13R110A/Nav1.7 complex: LCA, PW164 20 μM, ZL192 50 μM
Description: The respective gene ID numbers used in this study are as follows: NM_033642 (human, FGF13-1b) and NM_002977 (human SCN9A). Full-length FGF13-1b (aa 1-192) was subcloned into appropriate plasmids for use in this investigation, unless otherwise noted. For consistency with AlphaFold modeling presented, numbering of point mutations to FGF13-1b are based on the longest FGF13 isoform (FGF13-1a, NM_004114.2). CLuc-FGF13, […]
and constructs expressing the CLuc or the NLuc fragments of Firefly ( Photinus pyralis) luciferase (24) respectively were engineered, mutated (CLuc-FGF13R110A) and sequenced at the Molecular Genomics Core (University of Texas Medical Branch). The CD4 -Nav1.7-CTD-NLuc cassette was synthesized from GeneArt (Nav1.7 residues 1780-1977) (ThermoFisher) and subcloned at 5'-HindIII and 3’-BsiWi restriction sites in pcDNA3.1 (Invitrogen). Additionally, FGF13 was amplified with polymerase chain reaction (PCR) by using gene-specific primers, and subcloned in pcDNA3.1 at 5’ -BsiWi and 3’-Not I restriction sites. […]
Cell Culture and transfections
HEK293 cells were purchased from ATCC (catalog # CRL-1573). Cells were cultured and incubated at 37 °C with 5% CO2 in medium with equal volumes of Dulbecco modified essential medium (DMEM) and F12 […]
Split-luciferase Complementation Assay (LCA)
Twenty-four hours post transfection, cells were trypsinized using TrypLE (Gibco; cat # 12604013), centrifuged at 1750 rpm for 5 min, triturated in medium, and seeded into white clear-bottom 96-well CELLSTAR µClear® plates (Greiner Bio -One; cat # 655073 ) at ~0.8 x 10^5 cells per well in 200 µl of medium. The cells were incubated for another 24 hours, and then the growth medium was replaced with 100 µl serum -free, phenol red -free DMEM/F-12 medium (Invitrogen). All compounds from the PW - and the ZL-series, including PW164 and ZL192, were dissolved in DMSO, added to a final concentration of 1 –500 μM (0.5 % DMSO) in the serum -free medium and then cells were incubated for two hours. The bioluminescence reaction was initiated by injection of 100 μl of D -luciferin substrate (1.5 mg/ml dissolved in PBS) using a Synergy H4 multimode microplate reader (BioTek). Luminescence readings were initiated after 3 s of mild plate shaking and performed at 2 min intervals for 20-30 min with integration times of 0.5 s, and the c ells were maintained throughout the measurements at 37 °C. Raw signal intensity was computed by averaging peak luminescence plus two adjacent time points.
Normalized signal intensity was expressed as the percentage of mean signal intensity relative to per plate control wells treated with 0.5% DMSO.
Surface plasmon resonance (SPR)
All SPR experiments were performed on a Biacore T100 (GE Healthcare). Biotin-Nav1.7-CTD peptide […]

T1 sequence (Q92913 1-192 isoform Q92913-2 R57A): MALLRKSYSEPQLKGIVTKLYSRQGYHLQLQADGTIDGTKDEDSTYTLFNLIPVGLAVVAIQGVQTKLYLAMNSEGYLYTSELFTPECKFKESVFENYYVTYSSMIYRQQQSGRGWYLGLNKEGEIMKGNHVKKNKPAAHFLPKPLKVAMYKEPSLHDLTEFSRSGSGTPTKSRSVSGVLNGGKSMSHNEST
T1 sequence (Q15858 1791-1988): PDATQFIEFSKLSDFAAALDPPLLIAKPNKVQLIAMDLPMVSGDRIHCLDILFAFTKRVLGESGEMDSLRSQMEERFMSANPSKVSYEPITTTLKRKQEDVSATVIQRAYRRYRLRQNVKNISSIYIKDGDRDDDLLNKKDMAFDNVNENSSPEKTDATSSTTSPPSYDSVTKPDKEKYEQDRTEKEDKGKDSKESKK

SMILES	Percentage luminescence, single replicates (Fig 1B, FGF13R110A, PW164 (20 μM))	activity against the FGF13R110A/Nav1.7 complex	LCA signal, FGF13R110A (Figure 1B), individual replicates (FGF13R110A, ZL192 vs Vehicle)
COC(=O)[C@@H](NC(=O)[C@H](CCC(=O)OC(C)(C)C)NC(=O)[C@H](CC(C)C)NC(=O)[C@@H]1CCCN1C(=O)OCc1ccccc1)C(C)C [PW164] (Cbz-PLE(OtBu)V-OMe)	93.615% and 94.3116% and 89.4358% and 83.8635% and 99.0481% and 84.8386% and 92.9185% and 91.1075% and 93.4757% and 87.3462% and 108.8%	prevented PW164 binding	
CC(=O)N[C@@H](Cc1ccccc1)C(=O)N[C@@H](CC(C)C)C(=O)N1CCC[C@H]1C(=O)N[C@@H](CCCCN)C(=O)Nc1ccccc1 [ZL192] (Ac-FLPK-NHPh)		no agonist activity	170.87 and 102.219 and 90.2721 and 84.4389 and 144.478 and 146.648 and 93.2954 and 156.251 and 109.034 and 101.512 and 90.7701 and 115.348
